Data from patent publication US7511061B2, “Triazoles as farnesyl transferase inhibitors” (Janssen Pharmaceutica N.V., priority 1999, dated 2009).
pIC50: −log10 of the molar value.

What was measured:
[1] = test system: Respiratory Syncytial Virus; assay: In vitro screening for activity against Respiratory Syncytial Virus (MTT assay, protection against cytopathology); assay type: cell-based; settings: for SI (selectivity index, CC50 divided by IC50): RSV, HeLa cells; for pIC50: human respiratory syncytial virus, 168 h, RSV-infected HeLa cells, seven days after infection, MTT, read-out: IC50 (antiviral activity)
From the text: (§1) The percent protection against cytopathology caused by viruses (antiviral activity or IC50) achieved by tested compounds and their cytotoxicity (CC50) were both calculated from dose-response curves. The selectivity of the antiviral effect is represented by the selectivity index (SI), calculated by dividing the CC50 (cytotoxic dose for 50% of the cells) by the IC50 (antiviral activity for 50% of the cells).
(§2) Automated tetrazolium-based […] assays were used for determination of IC50 and CC50 of test compounds. Flat-bottom, 96-well plastic microtiter trays were filled with 180 μl of Eagle's Basal Medium, supplemented with 5% FCS (0% for FLU) and 20 mM Hepes buffer. Subsequently, stock solutions (7.8× final test concentration) of compounds were added in 45 μl volumes to a series of triplicate wells so as to allow simultaneous evaluation of their effects on virus- and mock-infected cells. Five five-fold dilutions were made directly in the microtiter trays using a robot system. Untreated virus controls, and HeLa cell controls were included in each test. Approximately 100 TCID50 of Respiratory Syncytial Virus was added to two of the three rows in a volume of 50 μl. The same volume of medium was added to the third row to measure the cytotoxicity of the compounds at the same concentrations as those used to measure the antiviral activity. After two hours of incubation, a suspension (4×10^5 cells/ml) of HeLa cells was added to all wells in a volume of 50 μl. The cultures were incubated at 37° C. in a 5% CO2 atmosphere. Seven days after infection the cytotoxicity and the antiviral activity was examined spectrophotometrically. To each well of the microtiter tray, 25 μl of a solution of MTT (3-(4,5-dimethylthiazol-2-yl)-2,5-diphenyltetrazolium bromide) was added. The trays were further incubated at 37° C. for 2 hours, after which the medium was removed from each cup. Solubilization of the formazan crystals was achieved by adding 100 μl 2-propanol. Complete dissolution of the formazan crystals were obtained after the trays have been placed on a plate shaker for 10 min. Finally, the absorbances were read in an eight-channel computer-controlled photometer (Multiskan MCC, Flow Laboratories) at two wavelengths (540 and 690 nm). The absorbance measured at 690 nm was automatically subtracted from the absorbance at 540 nm, so as to eliminate the effects of non-specific absorption.

HeLa cells = assay type: cell-based; settings: human, 7 days
From the text: as §1, §2

[2] = target: farnesyl protein transferase (FPTase) (Homo sapiens, UniProt P49354+P49356); assay: In vitro assay for inhibition of farnesyl protein transferase; assay type: biochemical; settings: test dose of 10^−7 M
Method: An in vitro assay for inhibition of farnesyl transferase was performed essentially as described in WO 98/40383, pages 33-34.

| Compound | SI (selectivity index, CC50 divided by IC50) [1] | pIC50 [1] | CC50 (cytotoxic dose for 50% of the cells) (HeLa cells) [nM] | inhibition at 0.1 µM [2] [%] |
| --- | --- | --- | --- | --- |
| Clc1ccc(Cn2cnnc2CN(CCc2ccc(Br)cc2)Cc2ccc3ccccc3n2)cc1 [compound 157] | 272 | 7.03 | 7030 | – |
| N#Cc1ccc(Cn2cnnc2CN(CCc2ccc(Cl)cc2Cl)Cc2ccc3ccccc3n2)cc1 [compound 114] | 337 | 6.93 | 6930 | – |
| Brc1ccc(CCN(Cc2ccc3ccccc3n2)Cc2nncn2Cc2ccc(Br)cc2)cc1 [compound 92] | 147 | 6.82 | 6820 | – |
| Cc1ccc(CCN(Cc2ccc3ccccc3n2)Cc2nncn2Cc2ccc(C#N)cc2)cc1 [compound 46] | 758 | 7.06 | 7060 | – |
| Fc1ccc(Cn2cnnc2CN(CCc2ccc(Br)cc2)Cc2ccc3ccccc3n2)cc1 [compound 97] | 322 | 7.10 | 7100 | – |
| Brc1ccc(CCN(Cc2ccc3ccccc3n2)Cc2nncn2Cc2ccccc2)cc1 [compound 101] | 196 | 6.89 | 6890 | – |
| N#Cc1ccc(Cn2cnnc2CN(CCc2ccc(Br)cc2)Cc2ccc3cccc(O)c3n2)cc1 [compound 155] | 99 | 6.80 | 6800 | – |
| COC(=O)c1ccc(Cn2cnnc2CN(CCc2ccc(Br)cc2)Cc2ccc3ccccc3n2)cc1 [compound 90] | 1988 | 7.59 | 7590 | – |
| N#Cc1cccc(Cn2cnnc2CN(CCc2ccc(Br)cc2)Cc2ccc3ccccc3n2)c1 [compound 102] | 793 | 7.08 | 7080 | – |
| N#Cc1ccc(Cn2cnnc2CN(Cc2ccc(F)cc2F)C(=O)c2cccc(-c3cccc(C(F)(F)F)c3)c2)cc1 [compound 227] | – | – | – | ≥ 10 |
| N#Cc1ccc(Cn2cnnc2CN(Cc2ccccc2OC(F)(F)F)C(=O)c2ccc3ccccc3n2)cc1 [compound 280] | – | – | – | ≥ 10 |
| Cc1ccc(C(=O)N(Cc2ccc(F)cc2F)Cc2nncn2Cc2ccc(C#N)cc2)cc1Br [compound 309] | – | – | – | ≥ 10 |
| Cc1ccc(C)c(/C=C/C(=O)N(Cc2ccc(F)cc2F)Cc2nncn2Cc2ccc(C#N)cc2)c1 [compound 225] | – | – | – | ≥ 10 |
| N#Cc1ccc(Cn2cnnc2CN(Cc2ccc(C(F)(F)F)cc2)C(=O)c2ccc3ccccc3n2)cc1 [compound 302] | – | – | – | ≥ 10 |
| N#Cc1ccc(Cn2cnnc2CN(Cc2ccc(F)cc2F)C(=O)c2cccc(-c3cc(Cl)cc(Cl)c3)c2)cc1 [compound 283] | – | – | – | ≥ 10 |
| N#Cc1ccc(Cn2cnnc2CN(Cc2ccc(F)cc2F)C(=O)/C(=C/c2ccccc2)c2ccccc2)cc1 [compound 266] | – | – | – | ≥ 10 |
| N#Cc1ccc(Cn2cnnc2CN(Cc2ccco2)C(=O)c2ccc3ccccc3n2)cc1 [compound 247] | – | – | – | ≥ 10 |
| O=C(c1ccc2ccccc2n1)N(Cc1ccc(F)cc1F)Cc1nncn1Cc1ccc([N+](=O)[O-])cc1 [compound 273] | – | – | – | ≥ 10 |
| N#Cc1ccc(Cn2cnnc2CN(CCc2ccc(Br)cc2)C(=O)c2ccc3c(c2)OCO3)cc1 [compound 244] | – | – | – | ≥ 10 |
| N#Cc1ccc(Cn2cnnc2CN(C(=O)c2ccc3ccccc3n2)c2ccc(N3CCOCC3)cc2)cc1 [compound 248] | – | – | – | ≥ 10 |
| N#Cc1ccc(Cn2cnnc2CN(Cc2ccc(F)cc2F)C(=O)c2cc3ccccc3s2)cc1 [compound 270] | – | – | – | ≥ 10 |
| N#Cc1ccc(Cn2cnnc2CN(Cc2ccc(Br)cc2)C(=O)c2ccc3ccccc3n2)cc1 [compound 304] | – | – | – | ≥ 10 |
| N#Cc1ccc(Cn2cnnc2CN(Cc2ccc(F)cc2F)C(=O)c2ccc(OC(F)(F)F)c(Cl)c2)cc1 [compound 293] | – | – | – | ≥ 10 |
| COc1cc(C(=O)N(CCc2ccc(Br)cc2)Cc2nncn2Cc2ccc(C#N)cc2)nc2ccccc12 [compound 220] | – | – | – | ≥ 10 |
| N#Cc1ccc(Cn2cnnc2CN(Cc2ccc(F)cc2F)C(=O)c2ccc(-c3ccc(F)c(Cl)c3)o2)cc1 [compound 272] | – | – | – | ≥ 10 |
| COc1ccc2oc(C(=O)N(CCc3ccc(Br)cc3)Cc3nncn3Cc3ccc(C#N)cc3)cc2c1 [compound 237] | – | – | – | ≥ 10 |
| Cc1nnc(CN(Cc2ccc(F)cc2F)C(=O)c2ccc3ccccc3n2)n1-c1ccc(C#N)cc1 [compound 313] | – | – | – | ≥ 10 |
| N#Cc1ccc(Cn2cnnc2CN(Cc2ccc(F)cc2F)C(=O)c2ccc(-c3ccccc3C(F)(F)F)o2)cc1 [compound 281] | – | – | – | ≥ 10 |
| N#Cc1ccc(Cn2cnnc2CN(Cc2ccc(F)cc2F)C(=O)c2cccc(Cl)n2)cc1 [compound 279] | – | – | – | ≥ 10 |
| N#Cc1ccc(Cn2cnnc2CN(Cc2c(F)ccc(F)c2F)c2ccc(Oc3ccccc3)cc2)cc1 [compound 238] | – | – | – | ≥ 10 |
